Assay results from patent US10548942B2, “CXCR antagonistic peptides and uses thereof” (STC.UNM, priority 2013, dated 2020).
“Also recorded” adds a separate entry of the source.

Experiments:
[1] = target: T1, CXCR2 receptor (Rattus norvegicus, UniProt P35407); assay: ac-PGP-induced apoptosis in primary cortical neurons, TUNEL stain; format: cell-based
T1 construct: endogenous in cells; host or cells: primary cortical neurons from Sprague-Dawley rat embryos (E18)
T1 sequence (P35407 1-359): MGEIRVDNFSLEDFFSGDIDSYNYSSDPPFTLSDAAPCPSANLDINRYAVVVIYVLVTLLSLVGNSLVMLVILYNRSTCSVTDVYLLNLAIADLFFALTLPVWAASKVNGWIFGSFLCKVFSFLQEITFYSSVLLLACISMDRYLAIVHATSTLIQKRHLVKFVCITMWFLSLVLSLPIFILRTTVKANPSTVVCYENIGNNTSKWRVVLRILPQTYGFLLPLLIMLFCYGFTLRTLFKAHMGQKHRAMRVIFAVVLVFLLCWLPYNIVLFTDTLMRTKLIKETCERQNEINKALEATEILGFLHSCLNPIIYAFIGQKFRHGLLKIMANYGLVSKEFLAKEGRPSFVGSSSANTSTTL
Experimental: First, the mechanism by which ac-PGP induces apoptosis in cortical neurons was investigated. Because ac-PGP is reported to engage neutrophil CXCR2 receptors, whether an established CXCR2 receptor antagonist, SB225002, could influence ac-PGP neurotoxicity was tested.
Cortical neurons were obtained from Sprague-Dawley rat embryos at day 18 of gestation. Cortices were triturated digested with 0.025% trypsin in phosphate buffer saline (PBS) for 10 minutes. Digestion was stopped by the addition of Dulbecco's Modified Eagle Medium (DMEM) containing 10% fetal bovine serum (FBS). Trypsinized cells were filtered using […] disposable cell filters (Becton-Dickinson), washed twice with Neurobasal medium (Gibco) containing 4% FBS, and preplated 4 times for 30 minutes in 150 mm vacuum-plasma treated dishes (Becton-Dickinson). During these preplating steps, primarily non-neuronal cells adhere to the dish, thereby enriching the neuronal population. […] At 7 DIV, cortical cultures were 98% neurons as assessed by microtubule-associated protein 2 (MAP2) antibody labeling and flow cytometry analysis (data not shown). […]
Cortical neurons were obtained from Sprague-Dawley rat embryos at day 18 of gestation. […] At 7 DIV, cortical cultures were 98% neurons as assessed by microtubule-associated protein 2 (MAP2) antibody labeling and flow cytometry analysis (data not shown).

[2] = system: cortical neurons; assay: oxygen-glucose deprivation (OGD) model of stroke in primary neurons; format: cell-based, rat; settings: for protection from OGD: treatment at reoxygenation or 5, 15, 30, or 60 minutes after reoxygenation, vs vehicle
Experimental: Cortical neurons were obtained from Sprague-Dawley rat embryos at day 18 of gestation. Cortices were triturated digested with 0.025% trypsin in phosphate buffer saline (PBS) for 10 minutes. Digestion was stopped by the addition of Dulbecco's Modified Eagle Medium (DMEM) containing 10% fetal bovine serum (FBS). Trypsinized cells were filtered using […] disposable cell filters (Becton-Dickinson), washed twice with Neurobasal medium (Gibco) containing 4% FBS, and preplated 4 times for 30 minutes in 150 mm vacuum-plasma treated dishes (Becton-Dickinson). During these preplating steps, primarily non-neuronal cells adhere to the dish, thereby enriching the neuronal population. Enriched neurons were plated at a density of 50×10^3/cm2 in Neurobasal medium containing 4% FBS, 25 μM Glutamax (Gibco), and penicillin-streptomycin (Gibco) in while clear-bottomed 96-well plates (353377) or 24-well plates (353226) (Becton-Dickinson) coaled overnight with 50 μg/ml poly-D-lysine. At plating, spaces between wells in 96-well plates were filled with 50 μl sterile water to minimize evaporation of medium at the edges of the dish. Twenty-four hours later (1 day in vitro, 1 DIV), 50% of the medium was replaced with Neurobasal medium, 2% B27 (Gibco), and 4 μM cytosine arabinoside (AraC) (2 μM AraC final). At 5 DIV, 50% of the medium was replaced with Neurobasal, 2% B27. At 7 DIV, cortical cultures were 98% neurons as assessed by microtubule-associated protein 2 (MAP2) antibody labeling and flow cytometry analysis (data not shown).
Cortical neurons were deprived of oxygen and glucose by incubation in deoxygenated glucose-free Hank's buffered saline solution (HBSS). HBSS was prepared as follows: sodium chloride, NaCl, 8.0 g/L, potassium chloride, KCl, 0.4 g/L, potassium phosphate monobasic, KH2PO4, 0.06 g/L, sodium phosphate dibasic, Na2HPO4, 0.048 g/L, magnesium sulfate. MgSO4, 0.098 g/L, calcium chloride, CaCl2, 0.14 g/L, sodium bicarbonate, NaHCO3, 0.35 g/L, D-glucose, C6H12O6, 1.0 g/L. Solutions were adjusted to pH 7.4 and sterilized by vacuum filtration through 0.2 μm polyether sulfone (PES) membranes. Glucose-free HBSS was prepared by omitting glucose and adding an additional half molar amount of NaCl to adjust osmolarity (8.162 g/L NaCl). Glucose-free HBSS was deoxygenated in a gas washing bottle with 95% nitrogen, 5% CO2 for 20 minutes at a flow rate of 3 L/min in a 37° C. water bath. Culture dishes were washed twice with deoxygenated glucose-free HBSS and incubated for 2 hours in glucose-free deoxygenated HBSS (OGD). Normoxic control cells were handled identically but were incubated in a 5% CO2 incubator with normal HBSS pre-equilibrated in a 5% CO2 atmosphere overnight. […]

For O=C(Nc1ccc([N+](=O)[O-])cc1O)Nc1ccccc1Br [SB225002], the “ac-PGP-induced apoptosis (TUNEL stain), dose comparison” value ([1]; 1 nM vs 0.01 and 0.1 nM) was “significantly less apoptotic”, the “ac-PGP-induced apoptosis (TUNEL stain)” value ([1]; pretreatment of primary cortical neurons before ac-PGP exposure, all doses, vs ac-PGP alone) was “significantly less apoptotic; also recorded: blocked ac-PGP neurotoxicity” and the “neuronal protection compared to administration at reoxygenation” value ([2]; administered at 15 minutes post-reoxygenation) was “significantly decreased; also recorded: significantly declined”. For the same compound, the “apoptosis after 2-hour OGD” value ([2]; pretreatment, 24-hour reoxygenation, vs vehicle-treated controls) was “significantly less apoptotic; also recorded: significant protection from OGD”, the “protection from OGD” value [2] was “significant protection” and the “protection from OGD” value ([2]; listed as SB2225002) was “provided neuroprotection”.
